According to patent US20040063662A1, “Selenophene anti-tumor agents” (priority 1996, published 2004):

How the values were obtained:
[1] = tested on: COLO 205; experiment: NCI human tumor cell panel: COLO 205 (Colon Cancer); type: cell-based; settings: COLO 205, Colon Cancer
[2] = tested on: MOLT-4; experiment: NCI human tumor cell panel: MOLT-4 (Leukemia); type: cell-based; settings: MOLT-4, Leukemia
[3] = tested on: U251; experiment: NCI human tumor cell panel: U251 (CNS Cancer); type: cell-based; settings: U-251, U251, CNS Cancer
[4] = tested on: NCI-H226; experiment: NCI human tumor cell panel: NCI-H226 (Non-Small Cell Lung Cancer); type: cell-based; settings: NCI-H226, Non-Small Cell Lung Cancer
[5] = tested on: SN12C; experiment: NCI human tumor cell panel: SN12C (Renal Cancer); type: cell-based; settings: Renal Cancer
[6] = tested on: SW-620; experiment: NCI human tumor cell panel: SW-620 (Colon Cancer); type: cell-based; settings: SW-620, Colon Cancer
[7] = tested on: HCC-2998; experiment: NCI human tumor cell panel: HCC-2998 (Colon Cancer); type: cell-based; settings: HCC-2998, Colon Cancer, read-out: Log10 TGI (converted)
[8] = tested on: MDA-MB-231/ATCC; experiment: NCI human tumor cell panel: MDA-MB-231/ATCC (Breast Cancer); type: cell-based; settings: Homo sapiens, MDA-MB-231, MDA-MB-231/ATCC, Breast Cancer
[9] = tested on: HCT-116; experiment: NCI human tumor cell panel: HCT-116 (Colon Cancer); type: cell-based; settings: HCT-116, Colon Cancer
[10] = tested on: MCF7; experiment: NCI human tumor cell panel: MCF7 (Breast Cancer); type: cell-based; settings: MCF7, Breast Cancer
[11] = tested on: HCT-15; experiment: NCI human tumor cell panel: HCT-15 (Colon Cancer); type: cell-based; settings: HCT-15, Colon Cancer
[12] = tested on: SNB-75; experiment: NCI human tumor cell panel: SNB-75 (CNS Cancer); type: cell-based; settings: SNB-75, CNS Cancer
[13] = tested on: M14; experiment: NCI human tumor cell panel: M14 (Melanoma); type: cell-based; settings: M14, Melanoma
[14] = tested on: HT29; experiment: NCI human tumor cell panel: HT29 (Colon Cancer); type: cell-based; settings: HT-29, HT29, Colon Cancer
[15] = tested on: SK-MEL-2; experiment: NCI human tumor cell panel: SK-MEL-2 (Melanoma); type: cell-based; settings: SK-MEL-2, Melanoma
[16] = tested on: SK-OV-3; experiment: NCI human tumor cell panel: SK-OV-3 (Ovarian Cancer); type: cell-based; settings: SK-OV-3, Ovarian Cancer
[17] = tested on: CCRF-CEM; experiment: NCI human tumor cell panel: CCRF-CEM (Leukemia); type: cell-based; settings: Leukemia
[18] = tested on: panel of sixty different human tumor cell lines; experiment: NCI human tumor cell panel: whole panel (mean graph summary); settings: Homo sapiens
[19] = tested on: MDA-N; experiment: NCI human tumor cell panel: MDA-N (Breast Cancer); type: cell-based; settings: Breast Cancer
[20] = tested on: NCI-H23; experiment: NCI human tumor cell panel: NCI-H23 (Non-Small Cell Lung Cancer); type: cell-based; settings: NCI-H23, Non-Small Cell Lung Cancer, read-out: Log10 TGI (converted)
[21] = tested on: SF-268; experiment: NCI human tumor cell panel: SF-268 (CNS Cancer); type: cell-based; settings: SF-268, CNS Cancer
[22] = tested on: DU-145; experiment: NCI human tumor cell panel: DU-145 (Prostate Cancer); type: cell-based; settings: DU-145, Prostate Cancer
[23] = tested on: SK-MEL-5; experiment: NCI human tumor cell panel: SK-MEL-5 (Melanoma); type: cell-based; settings: SK-MEL-5, Melanoma
[24] = tested on: UACC-62; experiment: NCI human tumor cell panel: UACC-62 (Melanoma); type: cell-based; settings: UACC-62, Melanoma
[25] = tested on: RXF-393; experiment: NCI human tumor cell panel: RXF-393 (Renal Cancer); type: cell-based; settings: RXF-393, Renal Cancer
[26] = tested on: T-47D; experiment: NCI human tumor cell panel: T-47D (Breast Cancer); type: cell-based; settings: T47D, Breast Cancer, read-out: Log10 TGI (converted)
[27] = tested on: HOP-62; experiment: NCI human tumor cell panel: HOP-62 (Non-Small Cell Lung Cancer); type: cell-based; settings: HOP-62, Non-Small Cell Lung Cancer, read-out: Log10 TGI (converted)
[28] = tested on: CAKI-1; experiment: NCI human tumor cell panel: CAKI-1 (Renal Cancer); type: cell-based; settings: CAKI-1, Renal Cancer
[29] = tested on: HL-60(TB); experiment: NCI human tumor cell panel: HL-60(TB) (Leukemia); type: cell-based; settings: Leukemia, read-out: Log10 GI50 (converted)
[30] = read-out: Log10 GI50 (converted)
[31] = read-out: Log10 TGI (converted)

O=Cc1ccc(-c2ccc(-c3ccc(C=O)[se]3)s2)[se]1 [NSC 676630]
> 100 µM: IC (TGI) [1, 31] | GI50 [2, 30] | IC (TGI) [2, 31] | IC (TGI) [3, 31] | GI50 [5, 30] | IC (TGI) [5, 31] | GI50 [6, 30] | IC (TGI) [6, 31] | GI50 [8, 30] | IC (TGI) [8, 31] | IC (TGI) [9, 31] | IC (TGI) [10, 31] | GI50 [11, 30] | IC (TGI) [11, 31] | IC (TGI) [12, 31] | GI50 [13, 30] | IC (TGI) [13, 31] | GI50 [14, 30] | IC (TGI) [14, 31] | GI50 [15, 30] | IC (TGI) [15, 31] | GI50 [16, 30] | IC (TGI) [16, 31] | GI50 [17, 30] | IC (TGI) [17, 31] | GI50 [19, 30] | IC (TGI) [19, 31] | IC (TGI) [20] | GI50 [21, 30] | IC (TGI) [21, 31] | GI50 [22, 30] | IC (TGI) [22, 31] | GI50 [23, 30] | IC (TGI) [23, 31] | IC (TGI) [24, 31] | GI50 [25, 30] | IC (TGI) [25, 31] | IC (TGI) [26] | IC (TGI) [27] | GI50 [29]
67.6 µM: GI50 [12, 30]
0.589 µM: GI50 [3, 30]
0.49 µM: IC (TGI) [4, 31]
15.1 µM: IC (TGI) [28, 31]
3.02 µM: GI50 [9, 30]
0.676 µM: GI50 [10, 30]
0.191 µM: GI50 [4, 30]
85.1 µM: IC (TGI) [7] | CC50 ([18]; read-out: Delta Log10 LC50, whole panel, line Delta (converted))
0.741 µM: GI50 [28, 30]
0.263 µM: GI50 [24, 30]
93.3 µM: GI50 [1, 30]
26.3 µM: GI50 ([18]; read-out: Delta Log10 GI50, whole panel, line Delta (converted))
